From patent US20260335277A1, “CHLOROTONIL DERIVATIVES” (priority 2023, published 2026)
Values after ≈ are worked out from the molar mass of the structure shown.

Assays:
[1] = Hemolysis; type: cell-based
Description: (§1) Complementing the toxicity profiling, ADME properties of the lead dehalogenil were determined. This had not been possible for the first generation frontrunner ChB1-Epo2 or the natural product ChA because of their poor limit of detection. […] Across species (mouse, rat, human), metabolic stability is high while plasma stability is moderate. Besides, no hemolysis and no inhibition of the metabolically important enzyme CYP3A4 was observed by both dehalogenil and ChA. Plasma protein binding (PPB) is >99.4% in all species.

[2] = test system: P. falciparum; experiment: P. falciparum infection models, per oral; type: in vivo; details: 50 mg/kg per oral
Description: (§2) In addition, standard in vitro ADME parameters cannot be uniquely determined since chlorotonil A concentrations in these assays were always below the limit of detection. […] Both compounds (chlorotonil A and B1-Epo2) could be administered at low doses intravenously, however, only when dissolved in a vehicle which is not suitable for further development as part of preclinic studies as it contained high amounts of organic solvents (10 vol. % ethanol, 5 vol. % DMSO).

[3] = Aqueous solubility; type: physicochemical
Description: as §1

[4] = test system: S. aureus N315 (methicillin-resistant, MRSA); experiment: MIC testing (broth microdilution, EUCAST); type: cell-based; details: Staphylococcus aureus, MRSA
Description: (§3) Minimal inhibitory concentration (MIC) of the compounds in the present invention was determined using broth microdilution performed according to EUCAST guidelines (ISO20776-1:2019). S. aureus ATCC29213 and E. faecalis ATCC29212 served as quality control strains.

[5] = test system: S. epidermidis DSM-28765; experiment: MIC testing (broth microdilution, EUCAST); type: cell-based; details: Staphylococcus epidermidis, DSM28765, S. epidermidis DSM-28765; read-out: MIC S. epiderm.
Description: as §3

[6] = test system: zebrafish larvae; experiment: Toxicity in zebrafish larvae (MTC / IC50); type: in vivo
Description: For toxicity screening, zebrafish larvae were exposed three days post fertilization and monitored for 48 h until five days post fertilization. All malformations and pathophysiological phenotypes were noted and used to determine the inhibitory concentration (IC50) of the respective derivative against zebrafish larvae. The selectivity index (SI) was then calculated using the IC50 and the MIC of either S. aureus or P. falciparum 3D7.

[7] = test system: clinical isolates from Gabon; details: read-out: median IC50; cited from earlier work
[8] = test system: mature gametocytes (stages IV and V); details: stage IV-V gametocytes; cited from earlier work
[9] = Toxicity in mouse models after multiple PO dosing; type: in vivo; details: multiple PO dosing at 100 mg/kg
Description: as §2

[10] = test system: parasitemia; details: mice, 4 day suppression test, 36-110 mg/kg oral, pilot experiments; cited from earlier work
[11] = test system: CYP3A4; experiment: Inhibition of CYP3A4; type: in vitro ADME
Description: as §1

[12] = test system: Plasmodium falciparum; details: cited from earlier work
[13] = test system: chloroquine-sensitive laboratory strains of Plasmodium falciparum; details: cited from earlier work
[14] = test system: mature gametocytes (stages IV and V); experiment: Activity against mature gametocytes (stage IV-V), bioluminescence assay; type: cell-based, P. falciparum; details: Plasmodium falciparum
Description: Activity against gametocytes was determined using an in vitro bioluminescence assay as described previously (doi.org/10.1371/journal.pone.0035019).

[15] = test system: chloroquine-resistant laboratory strains of Plasmodium falciparum; details: cited from earlier work
[16] = test system: chloroquine-resistant P. falciparum; experiment: Drug sensitivity assay, asexual stages (HRP2 ELISA, 72 h); type: cell-based; details: Plasmodium falciparum; chloroquine-resistant P. falciparum Dd2; mean ± SD
Description: (§4) Drug sensitivity assays of asexual plasmodium stages were carried out as described before (doi: 10.1128/AAC.49.8.3575-3577.2005). Briefly, the drugs were distributed in a 3-fold serial dilution in 96-well plates. Synchronized ring-stage parasites were diluted to a parasitemia of 0.05% with O Rh+ erythrocytes incomplete culture medium and seeded at a hematocrit of 1.5% in a total volume of 225 μL per well. Thereafter, the plates were incubated at 5% CO2, 5% O2, at 37° C. for 72 h, then they were frozen and thawed three times. The growth inhibition of P. falciparum was measured through an enzyme-linked immunosorbent assay (ELISA) for histidine-rich protein 2 (HRP2) using a microplate reader.

[17] = test system: drug-sensitive P. falciparum 3D7; experiment: as above; type: cell-based; details: Plasmodium falciparum, mean ± SD, read-out: chloroquine IC50
Description: as §4

Compound | hemolysis [1] | efficacy in P. falciparum infection model (cure) [2] | water solubility [3] | MIC [4] | MIC [5] | toxicity effects in zebrafish larvae models ([6]; comparative studies) | IC50 in zebrafish larvae ([6]; exposed 3 days post fertilization, monitored 48 h) | IC50 [7] | gametocytocidal activity compared with other tested compounds [8] | toxicity in mouse models [9] | reduced parasitemia [10] | inhibition of CYP3A4 [11] | development of resistant parasites in vitro by drug pressure [12] | IC50 [13] | IC50 [14] | IC50 [15] | IC50 [16] | IC50 [17]
CC1=C[C@@H](C)[C@H]2[C@@H]3C(=O)C(Cl)(Cl)C(=O)[C@H](C)C(=O)O[C@@H](C)/C=C/C=C\[C@@H](C)[C@@H]3C=C[C@@H]2C1 [ChA, reference compound] | no hemolysis | full cure | poor water solubility | 0.05 µg/mL (≈ 0.104 µM) | 0.05 µg/mL (≈ 0.104 µM) | cardiotoxic, hepatotoxic and developmental toxicity effects | 1.09 µM | 15.2 nM | superior activity to all other tested compounds in this assay, besides epoxomicin | general adverse effects, and cardio- and hepatotoxicity | > 90% | no inhibition | not possible to develop resistant parasites in vitro | 9 nM | 9.5 ± 3 nM | 18 nM |  | 
CCN(CC)CCCC(C)Nc1ccnc2cc(Cl)ccc12 (stereo not drawn) [Chloroquine] |  |  |  |  |  |  |  |  |  |  |  |  |  |  |  |  | 226 ± 76 nM | 7.4 nM
